Structures can show the parent of a compound that is named as a salt.
How the values were obtained:
[1] = target: dopamine D1 receptor (Homo sapiens, UniProt P21728); assay: Dopamine receptor competitive binding, D1; conditions: for inhibition at 10 µM / Inhibition(%) for D1: tested at 1 × 10^−5 mol/L; for Ki: calculated from the inhibition data
Protocol: (§1) 1. Dopamine Receptor Binding Studies
The Ki is calculated according the inhibition data tested.

[2] = target: dopamine D2 receptor (Homo sapiens, UniProt P14416); assay: Dopamine receptor competitive binding, D2; conditions: for inhibition at 10 µM / Inhibition(%) for D2: tested at 1 × 10^−5 mol/L; for Ki: calculated from the inhibition data
Chain of dopamine D2 receptor (P14416 whole entry, species assumed): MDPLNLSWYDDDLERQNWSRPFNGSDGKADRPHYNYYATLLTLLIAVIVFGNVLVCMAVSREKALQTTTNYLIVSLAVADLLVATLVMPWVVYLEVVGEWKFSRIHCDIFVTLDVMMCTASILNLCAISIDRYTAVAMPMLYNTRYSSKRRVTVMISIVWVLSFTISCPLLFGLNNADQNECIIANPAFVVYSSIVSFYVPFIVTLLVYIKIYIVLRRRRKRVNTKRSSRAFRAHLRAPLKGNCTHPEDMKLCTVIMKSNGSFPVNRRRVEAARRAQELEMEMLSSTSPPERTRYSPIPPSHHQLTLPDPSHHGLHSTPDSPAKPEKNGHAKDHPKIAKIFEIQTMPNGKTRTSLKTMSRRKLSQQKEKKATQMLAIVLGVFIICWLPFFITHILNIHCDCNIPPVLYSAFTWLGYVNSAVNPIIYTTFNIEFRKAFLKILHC
Protocol: as §1
The affinities of these compounds on dopamine receptors were evaluated with competitive receptor binding assays (Acta Pharmacol Sin, 1989, 10:104 and Acta Pharmacol Sin, 2003, 24(3): 225-229). The Ki is calculated according the inhibition data tested.

[3] = system: mice; assay: PCP-induced immobility test in mice; assay type: in vivo; conditions: 20 mg/kg (i.g.), PCP-treated mice; PCP group 78.1±28 s, P<0.05
Protocol: 3. PCP-Induced Immobility Test in Mice
Phencyclidine(PCP)-induced immobility test in mice was selected as the model to evaluate the antipsychotic effect of some compounds of the present invention (Br J Pharmacol, 1995, 116: 2531-2537). The dose is selected according the ED50 of l-CSLMS. Given PCP, immobility times of mice was increased, whereas the active compound can decrease the immobility time. At 20 mg/kg (i.g.), the immobility time of compound of example 47 is 54.9±19 s, and the immobility time of l-CSLMS is 48.0±27 s, which has statistically significant differences (P<0.05) compared to PCP group (78.1±28 s).

[4] = system: 6-OHDA-lesioned rats; assay: 6-OHDA-lesioned rats rotation test; assay type: in vivo; conditions: 10 mg/kg
Protocol: 2. 6-OHDA-Lesioned Rats Rotation Test
Some of the compounds were evaluated on 6-OHDA-lesioned rats model.

[5] = preliminary clinic studies, cited from earlier work

Chain of dopamine D1 receptor (P21728 whole entry): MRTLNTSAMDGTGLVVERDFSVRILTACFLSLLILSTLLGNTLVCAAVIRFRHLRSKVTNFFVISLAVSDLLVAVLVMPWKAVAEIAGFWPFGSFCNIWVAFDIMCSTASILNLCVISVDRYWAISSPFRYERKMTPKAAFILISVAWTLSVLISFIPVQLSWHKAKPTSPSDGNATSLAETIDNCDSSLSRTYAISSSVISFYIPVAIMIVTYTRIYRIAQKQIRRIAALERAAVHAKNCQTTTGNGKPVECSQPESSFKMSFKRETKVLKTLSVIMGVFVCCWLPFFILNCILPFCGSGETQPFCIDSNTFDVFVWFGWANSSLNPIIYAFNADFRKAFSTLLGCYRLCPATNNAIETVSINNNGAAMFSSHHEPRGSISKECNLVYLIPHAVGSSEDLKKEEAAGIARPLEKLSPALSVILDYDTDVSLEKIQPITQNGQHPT

Row | SMILES | inhibition at 10 µM [1] | inhibition at 10 µM [2] | Ki [1] | other results
1 | COc1cc2c(cc1OC(C)=O)C1Cc3c(Cl)cc(OC)c(OC(C)=O)c3CN1CC2 (single isomer, unassigned; (-)) [Example 47, (−)-2,9-diacetoxy-3,10-dimethoxy-12-chloro-5,8,13,13a-tetrahydro-6H-dibenzo[a,g]quinolizine] | 100% | 77.4% | – | immobility time [3]: 54.9 ± 19 s
2 | COc1cc2c(cc1OC(C)=O)C1Cc3ccc(OC(C)=O)c(OC)c3CN1CC2 (single isomer, unassigned; (-)) [Example 48, (−)-2,10-diacetoxy-3,9-dimethoxy-5,8,13,13a-tetrahydro-6H-dibenzo[a,g]quinolizine] | – | – | – | effect in 6-OHDA-lesioned rats model [4]: positive effects
3 | COc1cc2c(cc1O)C1Cc3c(Cl)cc(OC)c(OC(C)=O)c3CN1CC2 (single isomer, unassigned; (-)) [Example 50, (−)-2-hydroxy-3,10-dimethoxy-9-acetoxy-12-chloro-5,8,13,13a-tetrahydro-6H-dibenzo[a,g]quinolizine] | 100% | – | – | Inhibition(%) for D2 [2]: 58.5%
4 | COc1cc2c(cc1O)C1Cc3c(Cl)cc(OC)c(O)c3CN1CC2 (stereo not drawn) [CSL, 2,9-dihydroxy-3,10-dimethoxy-12-chloro-5,8,13,13a-tetrahydro-6H-dibenzo[a,g]quinolizine, reference compound] | – | – | 6.1 ± 3 nM | –
5 | COc1cc2c(cc1O)C1Cc3c(Cl)cc(OC)c(OC(C)=O)c3CN1CC2 (stereo not drawn) [Example 7, 2-hydroxy-3,10-dimethoxy-9-acetoxy-12-chloro-5,8,13,13a-tetrahydro-6H-dibenzo[a,g]quinolizine] | – | – | 10.7 ± 1 nM | Inhibition(%) for D1 [1]: 100%; Ki [2]: 6.9 ± 1.5 µM; Inhibition(%) for D2 [2]: 100.0%; effect in 6-OHDA-lesioned rats model [4]: positive effects
6 | CC(=O)O.COc1cc2c(cc1OC(C)=O)C1Cc3c(Cl)cc(OC)c(OC(C)=O)c3CN1CC2 (stereo not drawn) [Example 8, 2,9-diacetoxy-3,10-dimethoxy-12-chloro-5,8,13,13a-tetrahydro-6H-dibenzo[a,g]quinolizine acetate] | – | – | – | Inhibition(%) for D1 [1]: 100.0%; Inhibition(%) for D2 [2]: 93.8%
7 | COc1cc2c(cc1O)C1Cc3c(Cl)cc(OC)c(OCCO)c3CN1CC2 (stereo not drawn) [Example 17, 2-hydroxy-3,10-dimethoxy-9-(2-hydroxy-ethoxy)-12-chloro-5,8,13,13a-tetrahydro-6H-dibenzo[a,g]quinolizine] | 97.9% | 57.4% | – | –
8 | COc1cc2c(cc1OCc1ccccc1)C1Cc3c(Cl)cc(OC)c(OCCOCCO)c3CN1CC2 (stereo not drawn) [Example 18, 2-benzyloxy-3,10-dimethoxy-9-[2-(2-hydroxy-ethoxy)-ethoxy]-12-chloro-5,8,13,13a-tetrahydro-6H-dibenzo[a,g]quinolizine] | – | – | – | melting point: 122 °C
9 | CCOC(=O)Oc1c(OC)cc(Cl)c2c1CN1CCc3cc(OC)c(O)cc3C1C2 (stereo not drawn) [Example 21, 2-hydroxy-3,10-dimethoxy-9-ethoxycarbonyloxy-12-chloro-5,8,13,13a-tetrahydro-6H-dibenzo[a,g]quinolizine] | 100% | 100% | 2.6 ± 0.7 nM | –
10 | COc1cc2c(cc1OCc1ccccc1)C1Cc3c(Cl)cc(OC)c(OC(=O)[C@@H](N)Cc4ccccc4)c3CN1CC2 (stereo partly drawn) [Example 23, 2-benzyloxy-3,10-dimethoxy-9-phenylalanyloxy-12-chloro-5,8,13,13a-tetrahydro-6H-dibenzo[a,g]quinolizine] | 77.5% | 44% | – | –
11 | COc1cc2c(cc1OC(C)=O)C1Cc3ccc(OC)c(OC(C)=O)c3CN1CC2 (stereo not drawn) [Example 34, 2,9-diacetoxy-3,10-dimethoxy-5,8,13,13a-tetrahydro-6H-dibenzo[a,g]quinolizine] | 99.4% | 90.7% | 51.8 ± 32.2 nM | Ki [2]: 10.6 ± 2.6 µM
12 | COCCOCCOCC(=O)Oc1cc2c(cc1OC)CCN1Cc3c(c(Cl)cc(OC)c3OC(=O)COCCOCCOC)CC21 (stereo not drawn) [Example 42, 2,9-bis-{2-[2-(2-methoxy-ethoxy)-ethoxy]-acetoxy-}3,10-dimethoxy-12-chloro-5,8,13,13a-tetrahydro-6H-dibenzo[a,g]quinolizine] | 96.2% | 39.7% | 35.4 ± 4.4 nM | Ki [2]: 14.9 ± 0.2 µM
13 | COCCOCCOCC(=O)Oc1c(OC)cc(Cl)c2c1CN1CCc3cc(OC)c(O)cc3C1C2 (stereo not drawn) [Example 43, 2-hydroxy-3,10-dimethoxy-9-{2-[2-(2-methoxy-ethoxy)-ethoxy]-acetoxy-}-12-chloro-5,8,13,13a-tetrahydro-6H-dibenzo[a,g]quinolizine] | – | – | 404 ± 188 nM | –
14 | Oc1cc2c(cc1O)C1Cc3c(Cl)cc(O)c(O)c3CN1CC2 (stereo not drawn) [Example 44, 2,3,9,10-tetrahydroxy-12-chloro-5,8,13,13a-tetrahydro-6H-dibenzo[a,g]quinolizine] | 100% | 93.3% | – | effect in 6-OHDA-lesioned rats model [4]: positive effects
15 | COc1cc(F)c2c(c1OC)CN1CCc3cc4c(cc3C1C2)OCO4 (stereo not drawn) [Example 63, 2,3-methylenedioxyl-9,10-dimethoxy-12-fluoro-5,8,13,13a-tetrahydro-6H-dibenzo[a,g]quinolizine] | – | – | – | Inhibition(%) for D1 [1]: 95.2%
16 | COc1cc2c(cc1O)[C@@H]1Cc3c(Cl)cc(OC)c(O)c3CN1CC2 [l-CSLMS, S-chloroscoulerine mesylate, reference compound] | – | – | – | Ki [2]: 1.7 ± 0.5 µM; immobility time [3]: 48.0 ± 27 s
17 | COc1cc2c(cc1O)[C@@H]1Cc3ccc(O)c(OC)c3CN1CC2 [l-SPD, l-Stepholidine] | – | – | – | side effects ([5]; schizophrenia): few side effects; activity in the treatment of schizophrenia [5]: favorable activity
